Laboratory results: US6953779B2, “Melanocortin receptor antagonists and modulations of melanocortin receptor activity” (The Regents of the University of California, priority 1998, dated 2005)
Square brackets hold non-standard residues; d marks the D form. Peptide text beside a SMILES is read from it. * marks the point of attachment. d2Nal = N[C@H](Cc1ccc2ccccc2c1)C(=O)O; Benzoyl(3-OMe) = COc1cccc(C(=O)*)c1; Benzoyl(4-OMe) = COc1ccc(C(=O)*)cc1; d2Thi = N[C@H](Cc1cccs1)C(=O)O

Each molecule was assayed on heat-induced edema in the anesthetized rat's paw (assay: Suppression of heat-induced edema in the anesthetized rat's paw (anti-inflammatory)). Conditions: i.v.; suppression of heat-induced edema in the anesthetized rat's paw.
Type: in vivo

SMILES	Anti-Inflammatory ED50
CC[C@H](C)[C@H](NC(=O)[C@@H](Cc1cccs1)NC(=O)[C@H](CC(C)C)NC(=O)[C@H](CC(C)C)NC(=O)[C@H](CCCCN)NC(=O)[C@H](CCCNC(=N)N)NC(=O)c1ccc(OC)cc1)C(=O)N[C@H](CC(C)C)C(N)=O [mystixin-7, p-anisoyl-Arg-Lys-Leu-Leu-D-Thi-Ile-D-Leu-NH2] ({Benzoyl(4-OMe)}-RKLL[d2Thi]I[dL]-NH2)	0.02 (0.014-0.059) mg/kg
CC[C@H](C)[C@H](NC(=O)[C@@H](Cc1cccs1)NC(=O)[C@H](CC(C)C)NC(=O)[C@H](CC(C)C)NC(=O)[C@H](CCCCN)NC(=O)[C@H](CCCNC(=N)N)NC(=O)c1ccc(OC)cc1)C(=O)N[C@H](C)C(N)=O [S-162, p-anisoyl-Arg-Lys-Leu-Leu-D-Thi-Ile-D-Ala-NH2] ({Benzoyl(4-OMe)}-RKLL[d2Thi]I[dA]-NH2)	0.24 (0.11-0.50) mg/kg
CC[C@H](C)[C@H](NC(=O)[C@@H](Cc1cccs1)NC(=O)[C@H](C)NC(=O)[C@H](CC(C)C)NC(=O)[C@H](CCCCN)NC(=O)[C@H](CCCNC(=N)N)NC(=O)c1ccc(OC)cc1)C(=O)N[C@H](CC(C)C)C(N)=O [S-165, p-anisoyl-Arg-Lys-Leu-Ala-D-Thi-Ile-D-Leu-NH2] ({Benzoyl(4-OMe)}-RKLA[d2Thi]I[dL]-NH2)	0.046 (0.015-0.14) mg/kg
CC[C@H](C)[C@H](NC(=O)[C@@H](Cc1ccc(O)cc1)NC(=O)[C@H](CC(C)C)NC(=O)[C@H](CC(C)C)NC(=O)[C@H](CCCCN)NC(=O)[C@H](CCCNC(=N)N)NC(=O)c1ccc(OC)cc1)C(=O)N[C@H](CC(C)C)C(N)=O [S-116, p-anisoyl-Arg-Lys-Leu-Leu-D-Tyr-Ile-D-Leu-NH2] ({Benzoyl(4-OMe)}-RKLL[dY]I[dL]-NH2)	0.080 (0.03-0.20) mg/kg
CC[C@H](C)[C@H](NC(=O)[C@@H](Cc1c[nH]c2ccccc12)NC(=O)[C@H](CC(C)C)NC(=O)[C@H](CC(C)C)NC(=O)[C@H](CCCCN)NC(=O)[C@H](CCCNC(=N)N)NC(=O)c1ccc(OC)cc1)C(=O)N[C@H](CC(C)C)C(N)=O [S-117, p-anisoyl-Arg-Lys-Leu-Leu-D-Trp-Ile-D-Leu-NH2] ({Benzoyl(4-OMe)}-RKLL[dW]I[dL]-NH2)	0.16 (0.050-0.40) mg/kg
CC[C@H](C)[C@H](NC(=O)[C@@H](C)NC(=O)[C@H](CC(C)C)NC(=O)[C@H](CC(C)C)NC(=O)[C@H](CCCCN)NC(=O)[C@H](CCCNC(=N)N)NC(=O)c1ccc(OC)cc1)C(=O)N[C@H](CC(C)C)C(N)=O [S-164, p-anisoyl-Arg-Lys-Leu-Leu-D-Ala-Ile-D-Leu-NH2] ({Benzoyl(4-OMe)}-RKLL[dA]I[dL]-NH2)	0.42 (0.18-0.96) mg/kg
COc1ccc(C(=O)N[C@@H](CCCNC(=N)N)C(=O)N[C@@H](CCCCN)C(=O)N[C@@H](CC(C)C)C(=O)N[C@@H](CC(C)C)C(=O)N[C@H](Cc2cccs2)C(=O)N[C@@H](C)C(=O)N[C@H](CC(C)C)C(N)=O)cc1 [S-163, p-anisoyl-Arg-Lys-Leu-Leu-D-Thi-Ala-D-Leu-NH2] ({Benzoyl(4-OMe)}-RKLL[d2Thi]A[dL]-NH2)	0.067 (0.030-0.15) mg/kg
CC[C@H](C)[C@H](NC(=O)[C@@H](Cc1cccs1)NC(=O)[C@H](CC(C)C)NC(=O)[C@H](CC(C)C)NC(=O)[C@H](C)NC(=O)[C@H](CCCNC(=N)N)NC(=O)c1ccc(OC)cc1)C(=O)N[C@H](CC(C)C)C(N)=O [S-166, p-anisoyl-Arg-Ala-Leu-Leu-D-Thi-Ile-D-Leu-NH2] ({Benzoyl(4-OMe)}-RALL[d2Thi]I[dL]-NH2)	>2 mg/kg
CC[C@H](C)[C@H](NC(=O)[C@@H](Cc1ccc2ccccc2c1)NC(=O)[C@H](CC(C)C)NC(=O)[C@H](CC(C)C)NC(=O)[C@H](CCCCN)NC(=O)[C@H](CCCNC(=N)N)NC(=O)c1ccc(OC)cc1)C(=O)N[C@H](CC(C)C)C(N)=O [S-114, p-anisoyl-Arg-Lys-Leu-Leu-D-Nal-Ile-D-Leu-NH2] ({Benzoyl(4-OMe)}-RKLL[d2Nal]I[dL]-NH2)	0.38 (0.16-0.91) mg/kg
CC[C@H](C)[C@H](NC(=O)[C@@H](Cc1cccs1)NC(=O)[C@H](CC(C)C)NC(=O)[C@H](C)NC(=O)[C@H](CCCCN)NC(=O)[C@H](CCCNC(=N)N)NC(=O)c1ccc(OC)cc1)C(=O)N[C@H](CC(C)C)C(N)=O [S-160, p-anisoyl-Arg-Lys-Ala-Leu-D-Thi-Ile-D-Leu-NH2] ({Benzoyl(4-OMe)}-RKAL[d2Thi]I[dL]-NH2)	0.18 (0.07-0.49) mg/kg
CC[C@H](C)[C@H](NC(=O)[C@@H](Cc1cccs1)NC(=O)[C@H](CC(C)C)NC(=O)[C@H](CC(C)C)NC(=O)[C@H](CCCCN)NC(=O)[C@H](C)NC(=O)c1ccc(OC)cc1)C(=O)N[C@H](CC(C)C)C(N)=O [S-118, p-anisoyl-Ala-Lys-Leu-Leu-D-Thi-Ile-D-Leu-NH2] ({Benzoyl(4-OMe)}-AKLL[d2Thi]I[dL]-NH2)	0.035 (0.012-0.10) mg/kg

Same assay, conditions: in words

SMILES	anti-edema activity
CC[C@H](C)[C@H](NC(=O)[C@H](CCCNC(=N)N)NC(=O)[C@@H](CCCNC(=N)N)NC(=O)c1ccc(OC)cc1)C(=O)N[C@H](CCCNC(=N)N)C(=O)N1CCC[C@H]1C(=O)N[C@H](CCCCN)C(=O)N[C@H](CC(C)C)C(N)=O [SQW-5, p-anisoyl-[D-Arg^6,9, D-Lys^11, D-Leu^12] dynorphin A(6-12)-NH2] ({Benzoyl(4-OMe)}-[dR]RI[dR]P[dK][dL]-NH2)	active as anti-edema agents
CC[C@H](C)[C@H](NC(=O)[C@@H](CCCNC(=N)N)NC(=O)[C@@H](CCCNC(=N)N)NC(=O)c1ccc(OC)cc1)C(=O)N[C@H](CCCNC(=N)N)C(=O)N1CCC[C@H]1C(=O)N[C@H](CCCCN)C(=O)N[C@H](CC(C)C)C(N)=O [SQW-4, p-anisoyl-D-Arg-D-Arg-Ile-D-Arg-Pro-D-Lys-D-Leu-amide] ({Benzoyl(4-OMe)}-[dR][dR]I[dR]P[dK][dL]-NH2)	active as anti-edema agents
CC[C@H](C)[C@H](NC(=O)[C@H](CCCNC(=N)N)NC(=O)[C@H](CCCNC(=N)N)NC(=O)c1cccc(OC)c1)C(=O)N[C@@H](CCCNC(=N)N)C(=O)N1CCC[C@H]1C(=O)N[C@@H](CCCCN)C(=O)N[C@@H](CC(C)C)C(N)=O [SQW-6, m-anisoyl-Arg-Arg-Ile-Arg-Pro-Lys-Leu-amide] ({Benzoyl(3-OMe)}-RRIRPKL-NH2)	active as anti-edema agents

Same assay, conditions: suppression of heat-induced edema in the anesthetized rat's paw; i

SMILES	Anti-Inflammatory ED50 [µmol/kg]
CC[C@H](C)[C@H](NC(=O)[C@H](CCCNC(=N)N)NC(=O)[C@@H](CCCNC(=N)N)NC(=O)c1ccc(OC)cc1)C(=O)N[C@H](CCCNC(=N)N)C(=O)N1CCC[C@H]1C(=O)N[C@H](CCCCN)C(=O)N[C@H](CC(C)C)C(N)=O [SQW-5, p-anisoyl-[D-Arg^6,9, D-Lys^11, D-Leu^12] dynorphin A(6-12)-NH2] ({Benzoyl(4-OMe)}-[dR]RI[dR]P[dK][dL]-NH2)	0.060
CC[C@H](C)[C@H](NC(=O)[C@H](CCCNC(=N)N)NC(=O)[C@H](C)NC(=O)c1cccc(OC)c1)C(=O)N[C@@H](CCCNC(=N)N)C(=O)N1CCC[C@H]1C(=O)N[C@@H](CCCCN)C(=O)N[C@@H](CC(C)C)C(N)=O [SQW-7, m-anisoyl-Ala-Arg-Ile-Arg-Pro-Lys-Leu-amide] ({Benzoyl(3-OMe)}-ARIRPKL-NH2)	>1
CC[C@H](C)[C@H](NC(=O)[C@H](CCCNC(=N)N)NC(=O)[C@H](CCCNC(=N)N)NC(=O)c1ccc(OC)cc1)C(=O)N[C@H](CCCNC(=N)N)C(=O)N1CCC[C@H]1C(=O)N[C@H](CCCCN)C(=O)N[C@H](CC(C)C)C(N)=O [SQW-2, p-anisoyl-Arg-Arg-Ile-D-Arg-Pro-D-Lys-D-Leu-amide] ({Benzoyl(4-OMe)}-RRI[dR]P[dK][dL]-NH2)	0.085
CC[C@H](C)[C@H](NC(=O)[C@@H](CCCNC(=N)N)NC(=O)[C@H](CCCNC(=N)N)NC(=O)c1ccc(OC)cc1)C(=O)N[C@H](CCCNC(=N)N)C(=O)N1CCC[C@H]1C(=O)N[C@H](CCCCN)C(=O)N[C@H](CC(C)C)C(N)=O [SQW-3, p-anisoyl-Arg-D-Arg-Ile-D-Arg-Pro-D-Lys-D-Leu-amide] ({Benzoyl(4-OMe)}-R[dR]I[dR]P[dK][dL]-NH2)	0.095
CC[C@H](C)[C@H](NC(=O)[C@@H](CCCNC(=N)N)NC(=O)[C@@H](CCCNC(=N)N)NC(=O)c1ccc(OC)cc1)C(=O)N[C@H](CCCNC(=N)N)C(=O)N1CCC[C@H]1C(=O)N[C@H](CCCCN)C(=O)N[C@H](CC(C)C)C(N)=O [SQW-4, p-anisoyl-D-Arg-D-Arg-Ile-D-Arg-Pro-D-Lys-D-Leu-amide] ({Benzoyl(4-OMe)}-[dR][dR]I[dR]P[dK][dL]-NH2)	0.200
CC[C@H](C)[C@H](NC(=O)[C@H](CCCNC(=N)N)NC(=O)[C@H](CCCNC(=N)N)NC(=O)c1cccc(OC)c1)C(=O)N[C@@H](CCCNC(=N)N)C(=O)N1CCC[C@H]1C(=O)N[C@@H](CCCCN)C(=O)N[C@@H](CC(C)C)C(N)=O [SQW-6, m-anisoyl-Arg-Arg-Ile-Arg-Pro-Lys-Leu-amide] ({Benzoyl(3-OMe)}-RRIRPKL-NH2)	0.51
CC[C@H](C)[C@H](NC(=O)[C@H](CCCNC(=N)N)NC(=O)[C@H](CCCNC(=N)N)NC(=O)c1cccc(OC)c1)C(=O)N[C@@H](C)C(=O)N1CCC[C@H]1C(=O)N[C@@H](CCCCN)C(=O)N[C@@H](CC(C)C)C(N)=O [SQW-10, m-anisoyl-Arg-Arg-Ile-Ala-Pro-Lys-Leu-amide] ({Benzoyl(3-OMe)}-RRIAPKL-NH2)	1.02
COc1cccc(C(=O)N[C@@H](CCCNC(=N)N)C(=O)N[C@@H](CCCNC(=N)N)C(=O)N[C@@H](C)C(=O)N[C@@H](CCCNC(=N)N)C(=O)N2CCC[C@H]2C(=O)N[C@@H](CCCCN)C(=O)N[C@@H](CC(C)C)C(N)=O)c1 [SQW-9, m-anisoyl-Arg-Arg-Ala-Arg-Pro-Lys-Leu-amide] ({Benzoyl(3-OMe)}-RRARPKL-NH2)	0.65
CC[C@H](C)[C@H](NC(=O)[C@H](CCCNC(=N)N)NC(=O)[C@H](CCCNC(=N)N)NC(=O)c1cccc(OC)c1)C(=O)N[C@@H](CCCNC(=N)N)C(=O)N[C@@H](C)C(=O)N[C@@H](CCCCN)C(=O)N[C@@H](CC(C)C)C(N)=O [SQW-11, m-anisoyl-Arg-Arg-Ile-Arg-Ala-Lys-Leu-amide] ({Benzoyl(3-OMe)}-RRIRAKL-NH2)	1.05
CC[C@H](C)[C@H](NC(=O)[C@H](C)NC(=O)[C@H](CCCNC(=N)N)NC(=O)c1cccc(OC)c1)C(=O)N[C@@H](CCCNC(=N)N)C(=O)N1CCC[C@H]1C(=O)N[C@@H](CCCCN)C(=O)N[C@@H](CC(C)C)C(N)=O [SQW-8, m-anisoyl-Arg-Ala-Ile-Arg-Pro-Lys-Leu-amide] ({Benzoyl(3-OMe)}-RAIRPKL-NH2)	>1
CC[C@H](C)[C@H](NC(=O)[C@H](CCCNC(=N)N)NC(=O)[C@H](CCCNC(=N)N)NC(=O)c1cccc(OC)c1)C(=O)N[C@@H](CCCNC(=N)N)C(=O)N1CCC[C@H]1C(=O)N[C@@H](CCCCN)C(=O)N[C@@H](C)C(N)=O [SQW-13, m-anisoyl-Arg-Arg-Ile-Arg-Pro-Lys-Ala-amide] ({Benzoyl(3-OMe)}-RRIRPKA-NH2)	2.39
CC[C@H](C)[C@H](NC(=O)[C@H](CCCNC(=N)N)NC(=O)[C@H](CCCNC(=N)N)NC(=O)c1cccc(OC)c1)C(=O)N[C@@H](CCCNC(=N)N)C(=O)N1CCC[C@H]1C(=O)N[C@@H](C)C(=O)N[C@@H](CC(C)C)C(N)=O [SQW-12, m-anisoyl-Arg-Arg-Ile-Arg-Pro-Ala-Leu-amide] ({Benzoyl(3-OMe)}-RRIRPAL-NH2)	0.98
